Experiments:
[1] = molecular target: T1, DUSP5 PD(WT) (Homo sapiens, UniProt Q16690); assay: pNPP phosphatase activity assay with DUSP5 PD(WT); format: biochemical
T1 construct: hexa-histidine (N); made in house; host or cells: E. coli BL21(DE3)
T1 sequence (Q16690 178-319 limits assumed): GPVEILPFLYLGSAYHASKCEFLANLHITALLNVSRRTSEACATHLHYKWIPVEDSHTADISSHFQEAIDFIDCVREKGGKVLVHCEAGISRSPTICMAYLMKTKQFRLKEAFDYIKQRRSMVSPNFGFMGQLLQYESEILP
From the text: p-Nitrophenolphosphatase (pNPP) Activity Assay.
To measure enzymatic activity of the DUSP5 PD and the inhibitory capacity of selected molecules, an in vitro phosphatase assay was developed based on previous studies (27). In this assay, DUSP5 PD dephosphorylates the substrate p-nitrophenol phosphate (pNPP, Sigma Aldrich), yielding p-nitrophenolate, which absorbs at 405 nm with an extinction coefficient of 18,000 M-1 cm-1.
Thus, an increase in absorbance at 405 nm corresponds to the turnover of pNPP top-nitrophenolate. The assay was initially optimized in 1 mL quartz cuvettes, then was subsequently optimized for and validated in a 96-well plate format. All IC50 values were obtained using the 96-well plate assay format (see below). The assay buffer contained 100 mM Tris, 100 mM sodium chloride, 5 mM magnesium chloride, and 1 mM dithiothreitol (DTT) at pH 7.5. The pNPP substrate was prepared as a 50 mM stock by dissolving the solid substrate in assay buffer. The DUSP5 PD and pNPP were assayed initially in a cuvette (1 mL total volume) and initial velocities were fitted to the Michaelis-Menten equation (1)
where v is the initial velocity, Vmax is the maximum velocity, Km is the Michaelis constant, and [S] is the concentration of pNPP. Data were fitted using a nonlinear least squares fit to eq. 1, with GraphPad Prism 6 software.
For the 96-well plate validation assay, sodium orthovanadate (Sigma Aldrich) was utilized as a positive control for inhibition (Swarup et al., Biochem Biophys Res Commun. 1982; 107:1104-9.) at a final concentration of 10 μM, to completely block activity. All plate assays were performed in standard 96-well clear bottom plates (Thermo Scientific Nunc) with a total assay volume of 200 μL, using a SpectraMax M5 Microplate Reader (Molecular Devices). The plate validation assay was performed with replicate columns of positive control wells, negative control wells and blank wells. Blank columns contained only buffer and pNPP. Negative control (uninhibited) contained buffer, pNPP, and DUSP5 PD; and, positive control contained the same components, but also contained 10 μM sodium orthovanadate. The plate was then shaken and allowed to equilibrate in the spectrophotometer at 25° C. for 30 min. After incubation, 4 μL of a […] was dispensed into appropriate wells utilizing a single-channel pipette. This produced a final enzyme concentration of 1 μM. Before a read was taken, the plate was shaken for five seconds. The initial rate for the DUSP5 PD reaction was linear for approximately 90 min; and, the plate was kept in the spectrophotometer at 25° C. for an additional 80 min after the kinetic read. The endpoint reading was subsequently taken at 90 min after initiation of reaction. Slopes from the kinetic read, as well as single-point absorbance values at the 90-minute endpoint read, were then averaged. For blank wells and positive control wells, both slope values (continuous assay) and single point absorbance values (fixed time assay) were approximately zero, as expected. Standard deviations were calculated and a Z′ value (Zhang et al., J Biomol Screening. 1999; 4:67-73) subsequently determined using the following equation: […]
IC50 values were obtained using the assay described above, in 96 well plates. The maximum inhibitor concentration screened in any plate was […] and the minimum was 1.5 μM. The IC50 plate was designed so that the first column of wells served as blanks, with wells containing only buffer and substrate. The second column of wells functioned as the plate negative control, with each well containing buffer, substrate and enzyme. The remaining wells in the plate contained buffer, substrate, enzyme, and varying amounts of inhibitor, with inhibitor concentration increasing from left to right across the plate. Data points were collected in triplicate, and inhibitor concentrations were chosen to provide data equally spread on a logarithmic scale. […]

[2] = molecular target: T2, DUSP5 PD(C263S) (Homo sapiens, UniProt Q16690, C263S); assay: NMR binding assay, 2D 1H-15N HSQC titration; conditions: pH 6.8; 250 μM RR505 or 500 μM CSD3-2320
T2 construct: hexa-histidine (N); made in house; host or cells: E. coli BL21(DE3), M9 minimal media with 15NH4Cl
T2 sequence (Q16690 178-319 C263S limits assumed): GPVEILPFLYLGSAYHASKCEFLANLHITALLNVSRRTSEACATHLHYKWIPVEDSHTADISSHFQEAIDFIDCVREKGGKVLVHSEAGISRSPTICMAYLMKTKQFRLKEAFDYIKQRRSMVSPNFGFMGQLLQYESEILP
Protocol: NMR samples of DUSP5 PD(C263 S) were prepared for 2D 1H-15N HSQC (heteronuclear single quantum coherence) spectral titration studies. The 15N-labeled DUSP5 PD(C263) protein was concentrated using an Amicon Ultra-4 centrifugal device (Millipore) to 600 μM.
NMR samples were prepared with the following conditions for RR505: ±250 μM RR505, 250 μM DUSP5 PD (C263S), 10% D20, 50 mM potassium phosphate, 100 mM KCl, and 2 mM DTT at pH 6.8.
NMR samples were prepared with the following conditions for CSD3-2320: ±500 μM CSD3-2320, 500 μM DUSP5 PD (C263S), 10% D20, 50 mM potassium phosphate, 100 mM KCl, and 2 mM DTT at pH 6.8. NMR experiments were performed on a 500 MHz Varian NMR System using a triple resonance probe with z-axis gradients at 25° C.

| IC50 ([1]; pNPP assay with DUSP5 PD) [mM] | IC50 ([1]; phosphatase domain alone, pNPP) [mM] | SMILES | IC50's, range in words ([1]; enzyme inhibition (FIG. 3)) | binding by HSQC crosspeak changes [2] |
| --- | --- | --- | --- | --- |
| – | – | O=S(=O)([O-])c1ccc2[nH]c3c(S(=O)(=O)[O-])cc(S(=O)(=O)[O-])cc3c2c1.[Na+].[Na+].[Na+] [RR505, Carbazole-1,3,6-trisulfonic acid, Trisodium Salt] | mM range | direct binding |
| 0.484 | 33 | O=S(=O)(O)c1cc(O)c2c(S(=O)(=O)O)cccc2c1 [RR527] | – | direct binding |

Source: patent publication US20180000778A1, “SMALL MOLECULE ANTAGONISTS OF DUSP5 AND METHODS OF USE” (THE MEDICAL COLLEGE OF WISCONSIN, INC., priority 2015, published 2018)
